The subject of the assay is P388 leukemia ip, CD2F1 mice, survival T/C. As to the kind of experiment: NCI In Vivo Anticancer Drug Screen. Data for tumor model P388 Leukemia (intraperitoneal) in CD2F1 (CDF1) mice. To be noted: endpoint: median survival time, higher = longer survival. The gist of the method: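 Mice carrying the transplanted tumor received test compound or vehicle. Survival was recorded in each group, and the value is the treated-group measurement divided by that of the vehicle-treated control group.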

Where [1] appears, read: dose: 50.0 mg/kg/injection, schedule: Q01DX005 (ip), vehicle: saline with Tween-80.
The mark [2] stands for this setting: dose: 100.0 mg/kg/injection, schedule: Q01DX005 (ip), vehicle: saline with Tween-80.
[3] abbreviates: dose: 200.0 mg/kg/injection, schedule: Q01DX005 (ip), vehicle: saline with Tween-80.
[4] abbreviates: dose: 12.5 mg/kg/injection, schedule: Q01DX005 (ip), vehicle: Klucel (hydroxypropylcellulose) (HPC).
Setting [5] is: dose: 25.0 mg/kg/injection, schedule: Q01DX005 (ip), vehicle: Klucel (hydroxypropylcellulose) (HPC).
The mark [6] stands for this setting: dose: 50.0 mg/kg/injection, schedule: Q01DX005 (ip), vehicle: Klucel (hydroxypropylcellulose) (HPC).
Setting [7] is: dose: 100.0 mg/kg/injection, schedule: Q01DX005 (ip), vehicle: Klucel (hydroxypropylcellulose) (HPC).
Setting [8] is: dose: 200.0 mg/kg/injection, schedule: Q01DX005 (ip), vehicle: Klucel (hydroxypropylcellulose) (HPC).
The mark [9] stands for this setting: dose: 50.0 mg/kg/injection, schedule: Q01DX009 (ip), vehicle: saline.
The mark [10] stands for this setting: dose: 100.0 mg/kg/injection, schedule: Q01DX009 (ip), vehicle: saline.
Setting [11] is: dose: 200.0 mg/kg/injection, schedule: Q01DX009 (ip), vehicle: saline.
Where [12] appears, read: dose: 60.0 mg/kg/injection, schedule: Q01DX005 (ip), vehicle: saline with Tween-80.
Where [13] appears, read: dose: 120.0 mg/kg/injection, schedule: Q01DX005 (ip), vehicle: saline with Tween-80.
[14] abbreviates: dose: 240.0 mg/kg/injection, schedule: Q01DX005 (ip), vehicle: saline with Tween-80.

Where “and” joins values, the source holds several entries; their conditions need not be identical. Identical values can stand only once. Inconclusive results and toxic doses are left out. Peptide text beside a SMILES is read from it. * marks the point of attachment. Cbz = O=C(OCc1ccccc1)*; OBn = c1ccc(CO*)cc1

In the case of `CN1C(=O)C23CCCCN2CC12CC1(C(=O)Nc4c1ccc1c4OC=CC(C)(C)O1)C(C)(C)C2C3` (configuration not stated), the T/C by setting is: (dose: 0.37 mg/kg/injection, schedule: Q01DX009 (ip), vehicle: Klucel (hydroxypropylcellulose) (HPC)) 100 % of control; (dose: 0.75 mg/kg/injection, schedule: Q01DX009 (ip), vehicle: Klucel (hydroxypropylcellulose) (HPC)) 102 % of control; (dose: 1.5 mg/kg/injection, schedule: Q01DX009 (ip), vehicle: Klucel (hydroxypropylcellulose) (HPC)) 100 % of control; (dose: 3.0 mg/kg/injection, schedule: Q01DX009 (ip), vehicle: Klucel (hydroxypropylcellulose) (HPC)) 100 % of control; (dose: 4.5 mg/kg/injection, schedule: Q01DX009 (ip), vehicle: Klucel (hydroxypropylcellulose) (HPC)) 96 % of control; (dose: 9.0 mg/kg/injection, schedule: Q01DX009 (ip), vehicle: Klucel (hydroxypropylcellulose) (HPC)) 98 % of control. Besides, under “dose: 18.0 mg/kg/injection, schedule: Q01DX009 (ip), vehicle: Klucel (hydroxypropylcellulose) (HPC)”, the T/C is 100 % of control.

For `O=C(CCCCCCCC(=O)Nc1ccc2c(=O)c3ccccc3[nH]c2c1)Nc1ccc2c(=O)c3ccccc3[nH]c2c1`, the T/C under setting [1] is 103 % of control, the T/C under setting [2] is 110 % of control and the T/C under setting [3] is 92 % of control.

With `c1ccc(-c2nc(N3CCN(c4ccco4)CC3)c3c4c(sc3n2)CCC4)cc1`, the T/C under setting [4] is 97 % of control; the T/C under setting [5] was 90 % of control; the T/C under setting [6] is 90 % of control and 91 % of control.

With `O.O=[N+]([O-])O.[NH2-].[NH2-].[Pt+2]`, the T/C reads like this: (dose: 0.04 mg/kg/injection, schedule: Q01DX009 (ip), vehicle: other) 118 % of control; (dose: 0.16 mg/kg/injection, schedule: Q01DX009 (ip), vehicle: other) 91 % of control; (dose: 0.31 mg/kg/injection, schedule: Q01DX009 (ip), vehicle: other) 150 % of control.

Turning to `S=C1NC2(CCCCC2)NC12CCCCC2`, the T/C by setting is: (dose: 50.0 mg/kg/injection, schedule: Q01DX009 (ip), vehicle: Klucel (hydroxypropylcellulose) (HPC)) 86 % of control; (dose: 100.0 mg/kg/injection, schedule: Q01DX009 (ip), vehicle: Klucel (hydroxypropylcellulose) (HPC)) 93 % of control; (dose: 200.0 mg/kg/injection, schedule: Q01DX009 (ip), vehicle: Klucel (hydroxypropylcellulose) (HPC)) 98 % of control; (dose: 400.0 mg/kg/injection, schedule: Q01DX009 (ip), vehicle: Klucel (hydroxypropylcellulose) (HPC)) 93 % of control.

As to `O=C(NC(CO)C(=O)N1CCCC1C(=O)OCc1ccccc1)OCc1ccccc1` (stereo not drawn) (Cbz-Ser-Pro-OBn; configuration not given here), the T/C runs as follows: under setting [6], 96 % of control; under setting [7], 93 % of control; under setting [8], 92 % of control.

On to `CC(=O)c1c(O)c2ccccc2c2nc3ccccc3nc12`, for which the T/C runs as follows: under setting [9], 96 % of control; under setting [10], 91 % of control; under setting [11], 91 % of control.

As to `COc1cc2ccccc2c2c1OP(=O)(O)Oc1c(OC)cc3ccccc3c1-2`, the T/C is 100 % of control (dose: 100.0 mg/kg/injection, schedule: Q01DX001 (ip), vehicle: saline with Tween-80); 92 % of control (dose: 200.0 mg/kg/injection, schedule: Q01DX001 (ip), vehicle: saline with Tween-80); 114 % of control (dose: 400.0 mg/kg/injection, schedule: Q01DX001 (ip), vehicle: saline with Tween-80).

With `O=C(NC1CCCCC1C1CCC(Cl)CC1)c1ccccc1` (configuration not stated), the T/C runs as follows: under setting [1], 89 % of control; under setting [2], 87 % of control; under setting [3], 87 % of control.

On to `CC(=O)C1(C)Nc2cccc3cccc(c23)N1`, for which the T/C is, setting by setting: under setting [6], 100 % of control; under setting [7], 96 % of control; under setting [8], 101 % of control.

Consider `COc1cccc(N=C(C2=C(O)c3ccccc3C2=O)c2ccccc2)c1`, for which the T/C runs as follows: (dose: 100.0 mg/kg/injection, schedule: Q04DX002 (ip), vehicle: saline with Tween-80) 101 % of control; (dose: 200.0 mg/kg/injection, schedule: Q04DX002 (ip), vehicle: saline with Tween-80) 97 % of control; (dose: 400.0 mg/kg/injection, schedule: Q04DX002 (ip), vehicle: saline with Tween-80) 100 % of control.

`O=C1c2ccccc2C(=O)N1CC#CC[N+]1([O-])CCc2ccccc2C1` (configuration not stated): the T/C was 103 % of control under setting [4], 102 % of control under setting [5], 103 % of control under setting [6] and 110 % of control under setting [7].

On to `CC1(C)N=C(Oc2cc(Cl)cc(Cl)c2)NC(=S)N1`, for which the T/C by setting is: (dose: 60.0 mg/kg/injection, schedule: Q01DX005 (ip), vehicle: DMSO) 109 % of control; (dose: 120.0 mg/kg/injection, schedule: Q01DX005 (ip), vehicle: DMSO) 100 % of control; (dose: 240.0 mg/kg/injection, schedule: Q01DX005 (ip), vehicle: DMSO) 97 % of control.

Consider `COC1=CC(=O)C(Cc2ccc(OC)cc2)=CC1=O`, for which the T/C is 100 % of control (dose: 2.5 mg/kg/injection, schedule: Q01DX009 (ip), vehicle: saline with Tween-80); 100 % of control (dose: 5.0 mg/kg/injection, schedule: Q01DX009 (ip), vehicle: saline with Tween-80); 100 % of control (dose: 10.0 mg/kg/injection, schedule: Q01DX009 (ip), vehicle: saline with Tween-80).

For the molecule `CC(NNC(=S)N1CCN(c2ccccn2)CC1)c1ccccn1` (configuration not stated), the T/C is, setting by setting: under setting [4], 99 % of control; under setting [5], 101 % of control; under setting [6], 109 % of control and 95 % of control.

On to `COc1cc([N+](=O)[O-])cc2c1OC1(C=C2)Oc2ccccc2N1C` (configuration not stated), for which the T/C is 103 % of control (dose: 15.0 mg/kg/injection, schedule: Q01DX005 (ip), vehicle: Klucel (hydroxypropylcellulose) (HPC)); 100 % of control (dose: 30.0 mg/kg/injection, schedule: Q01DX005 (ip), vehicle: Klucel (hydroxypropylcellulose) (HPC)); 94 % of control (dose: 60.0 mg/kg/injection, schedule: Q01DX005 (ip), vehicle: Klucel (hydroxypropylcellulose) (HPC)); 100 % of control (dose: 120.0 mg/kg/injection, schedule: Q01DX005 (ip), vehicle: Klucel (hydroxypropylcellulose) (HPC)).

With `CC1CCC2(C)C(CC(O)[C@H](O)C2(C)O)C1(C)CCc1ccoc1` (some centres not stated), the T/C runs as follows: (dose: 3.5 mg/kg/injection, schedule: Q01DX005 (ip), vehicle: Klucel (hydroxypropylcellulose) (HPC)) 108 % of control; (dose: 7.0 mg/kg/injection, schedule: Q01DX005 (ip), vehicle: Klucel (hydroxypropylcellulose) (HPC)) 103 % of control; (dose: 14.0 mg/kg/injection, schedule: Q01DX005 (ip), vehicle: Klucel (hydroxypropylcellulose) (HPC)) 106 % of control; under setting [5], 101 % of control; (dose: 28.0 mg/kg/injection, schedule: Q01DX005 (ip), vehicle: Klucel (hydroxypropylcellulose) (HPC)) 104 % of control; under setting [6], 92 % of control. In addition, under setting [7], the T/C was 97 % of control.

`CN1N=C(N)c2cn(C3OC(COP(=O)(O)O)C(O)C3O)c3ncnc1c23` (configuration not stated): the T/C (dose: 6.25 mg/kg/injection, schedule: Q01DX009 (ip), vehicle: water) is 124 % of control; the T/C (dose: 20.0 mg/kg/injection, schedule: Q01DX005 (ip), vehicle: saline) is 122 % of control; the T/C (dose: 38.0 mg/kg/injection, schedule: Q01DX005 (ip), vehicle: water) is 124 % of control.

As to `Cc1c2c(nn1C)CC(C)(C)OC2=O`, the T/C runs as follows: (dose: 100.0 mg/kg/injection, schedule: Q01DX001 (ip), vehicle: Klucel (hydroxypropylcellulose) (HPC)) 95 % of control; (dose: 200.0 mg/kg/injection, schedule: Q01DX001 (ip), vehicle: Klucel (hydroxypropylcellulose) (HPC)) 100 % of control; (dose: 400.0 mg/kg/injection, schedule: Q01DX001 (ip), vehicle: Klucel (hydroxypropylcellulose) (HPC)) 101 % of control.

As for `O=C(O)c1ccc2c(c1)S(=O)(=O)NC2=O`, the T/C was 95 % of control under setting [12], 99 % of control under setting [13] and 101 % of control under setting [14].

On to `Cc1cc(Cl)ccc1NC(=O)C1C(=O)N(c2ccc(Cl)cc2C)C(=O)/C1=N\NC(N)=O` (configuration not stated), for which the T/C is 101 % of control under setting [12], 93 % of control under setting [13] and 98 % of control under setting [14].

As for `C[As+](C)(C)CC(=O)O`, the T/C is 99 % of control under setting [9], 99 % of control under setting [10] and 101 % of control under setting [11].

These data come from PubChem BioAssay AID330 (DTP/NCI, 2004).
